Data on one sequence can be found in patent publication US20140227311A1, “Method for Removing Immunosuppressive Properties of HIV Envelope Glycoproteins” (priority 2011, published 2014).

The test system of this assay is CTLL-2 cells. The assay is classed as cell-based. The note with it: dimerized peptides (disulfide); 24 h; wt effect at concentrations of 75 or 100 uM; FIG. 1.

Ends that are not written are not given here.

For the sequence “LQARILAVERYLKDQQLLGIWGCGGEKEKEK (also: dimerized) [wt ISD, dimerized wild-type ISD peptide with GGEKEKEK tail]”, the “inhibition of the proliferation of CTLL2 cells” value is listed as “inhibits the proliferation of the CTLL2 cells at concentrations of 75 or 100 uM”.
